Measured values: publication PMC6349167, “Inhibiting the urokinase‐type plasminogen activator receptor system recovers STZ‐induced diabetic nephropathy” (Journal of Cellular and Molecular Medicine, 2018)
Read-outs that look alike come from different tables or passages of the source. Non-standard residues stand in square brackets, D forms with d. Residues, ends and D or L forms follow the SMILES beside them. αMeF = C[C@](N)(Cc1ccccc1)C(=O)O; Aib = CC(C)(N)C(=O)O

How the values were obtained:
[1] = in vivo; conditions: male, Sprague-Dawley, rat, sc, 20 mg/kg
Experimental: (§1) Four weeks after diabetes induction, three control or three STZ rats were used for the pharmacokinetics (PK) and the tissue distribution study. To this aim, rats received a single dose of UPARANT succinate dissolved in PBS (vehicle) at 20 mg/kg via subcutaneous injection according to a previous study.22 To investigate a possible therapeutic role of UPARANT, the drug was administered at 1 or 8 mg/kg daily for 5 days in 15 rats for each concentration used. […] Rats were killed with 65 mg/kg pentobarbital. Blood was collected in EDTA tubes to then isolate plasma by centrifugation and kidneys were removed.
(§2) PK and UPARANT tissue distribution were as previously described.21 Briefly, for plasma PK, a volume of 0.2 mL blood was extracted at fixed time intervals (0.25, 0.5, 1, 2, 4, 6, 8, 12, 16 and 24 hours after dose) from the femoral vein. Blood was centrifuged (12 000 g for 20 minutes) and plasma was treated with 1% formic acid in methanol. Samples were stored at −80°C. The animals used for the PK study were killed at 24 hours. Kidneys and livers were dissected and processed with 1% formic acid in methanol. The concentration of UPARANT was evaluated via LC‐MS/MS.

[2] = rat, in vivo, sc, 20 mg/kg
Experimental: (§3) Four weeks after diabetes induction, three control or three STZ rats were used for the pharmacokinetics (PK) and the tissue distribution study. To this aim, rats received a single dose of UPARANT succinate dissolved in PBS (vehicle) at 20 mg/kg via subcutaneous injection according to a previous study.22 To investigate a possible therapeutic role of UPARANT, the drug was administered at 1 or 8 mg/kg daily for 5 days in 15 rats for each concentration used.
(§4) PK and UPARANT tissue distribution were as previously described.21 Briefly, for plasma PK, a volume of 0.2 mL blood was extracted at fixed time intervals (0.25, 0.5, 1, 2, 4, 6, 8, 12, 16 and 24 hours after dose) from the femoral vein. Blood was centrifuged (12 000 g for 20 minutes) and plasma was treated with 1% formic acid in methanol. Samples were stored at −80°C. The animals used for the PK study were killed at 24 hours. […] The concentration of UPARANT was evaluated via LC‐MS/MS.
(§5) A two phase model equation Ct = C0(e^-kelim^ t-e^-kabs^ t) with first order kinetics (absorption and elimination) was used to evaluate the kinetic parameters. Both C0 corresponding to the plasma concentration extrapolated at t=0 from the elimination phase and kelim and kabs, elimination and absorption kinetic parameters, were determined by best fit to the equation of the averaged time point concentrations. The terminal half-life t1/2 corresponding to 0.693/kelim and time tmax at the maximum plasma concentration Cmax were determined from the first derivative equal zero of the kinetic equation. The AUCinf, area under the concentration curve versus time from 0 to infinity was calculated by the integral of the kinetic equation.

[3] = male, Sprague-Dawley, rat, in vivo, sc, 20 mg/kg, 24 h
Experimental: as §1, §2

[4] = in vivo; conditions: male, Sprague-Dawley, rat, sc, 20 mg/kg; remark: listed apart in the source
Experimental: as §3, §4, §5

tissue level at time at 24 h ([1]; concentration of UPARANT in the kidney): 45900 ± 3600 ng/g
tissue level at time at 24 h ([1]; concentration of UPARANT in the liver): 21100 ± 2400 ng/g
AUCinf ([2]; male, Sprague-Dawley): 16100 ng·h/mL
Cmax ([2]; male, Sprague-Dawley): 2300 ng/mL
tmax ([2]; male, Sprague-Dawley): 2.2 h
kabs [2]: 0.6 ± 0.2 h⁻¹
t1/2 [2]: 2.2 h
concentration of UPARANT in the kidney [3]: 28.2 ± 4.3 µg/g
concentration of UPARANT in the liver [3]: 20.4 ± 7.5 µg/g
half-life [4]: 2.2 h
AUC(0-inf) ([4]; AUCinf): 15900 ng·h/mL
Cmax ([4]; Cmax): 2600 ng/mL
tmax ([4]; tmax): 2.3 h
Compound: CC(=O)N[C@@H](CCCNC(=N)N)C(=O)NC(C)(C)C(=O)N[C@@H](CCCNC(=N)N)C(=O)N[C@@](C)(Cc1ccccc1)C(N)=O [UPARANT, Ac‐L‐Arg‐Aib‐L‐Arg‐L‐Cα(Me)PheNH2] (Ac-R[Aib]R[αMeF]-NH2)
